“Also recorded” adds a separate entry of the source. Read-outs that look alike come from different tables or passages of the source.
Tests used:
[1] = system: human umbilical vein endothelial cells (HUVEC); details: cytokine treatment over 4 hours, vs Medium control; cited from earlier work
[2] = system: human dermal microvascular endothelial cells (HDMEC); details: cytokine treatment over 4 hours, vs Medium control; cited from earlier work
[3] = system: sE-selectin; details: cited from earlier work
[4] = system: animals; details: in vivo
[5] = target: T1, E-selectin (Homo sapiens, UniProt P16581); test: binding and inhibiting E-selectin
T1 sequence (P16581 22-610): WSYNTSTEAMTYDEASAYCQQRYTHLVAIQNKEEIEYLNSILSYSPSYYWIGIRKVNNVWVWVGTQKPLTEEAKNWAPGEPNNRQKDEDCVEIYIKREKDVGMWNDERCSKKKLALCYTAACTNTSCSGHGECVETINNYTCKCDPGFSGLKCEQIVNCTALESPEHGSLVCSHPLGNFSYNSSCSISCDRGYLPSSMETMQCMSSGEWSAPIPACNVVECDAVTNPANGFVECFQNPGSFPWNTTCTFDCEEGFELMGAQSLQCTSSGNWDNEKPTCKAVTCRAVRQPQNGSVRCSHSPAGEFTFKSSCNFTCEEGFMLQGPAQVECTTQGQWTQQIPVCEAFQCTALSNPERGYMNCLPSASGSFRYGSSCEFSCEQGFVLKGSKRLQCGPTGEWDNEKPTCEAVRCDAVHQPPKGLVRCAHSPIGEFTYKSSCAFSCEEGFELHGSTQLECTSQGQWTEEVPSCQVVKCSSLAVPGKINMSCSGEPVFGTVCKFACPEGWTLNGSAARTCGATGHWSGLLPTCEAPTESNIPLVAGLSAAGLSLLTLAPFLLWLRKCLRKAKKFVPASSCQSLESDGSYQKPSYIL

[6] = system: humans; details: human, in vivo
[7] = system: Human lung microvascular endothelial cells (HMVEC-L); details: HMVEC-L treated with 10 μM; cited from earlier work
[8] = system: humans; test: toxicity in Phase 1 clinical trials / humans
[9] = system: animals; test: toxicity in animals
[10] = system: COVID-19 patients; details: of six COVID-19 patients in the ICU; cited from earlier work

IL-1β: cytokine used to treat endothelial cells
expression of E-selectin [1]: stimulate expression of E-selectin | expression of E-selectin [2]: stimulate expression of E-selectin

CC[C@H]1C[C@@H](C(=O)NCCNC(=O)CCOCCOCCOCCOCCOCCOCCOCCOCCOCCOCCOCCOC)C[C@@H](O[C@@H]2O[C@H](CO)[C@H](O)[C@H](O[C@@H](CC3CCCCC3)C(=O)[O-])[C@H]2NC(C)=O)[C@@H]1O[C@@H]1O[C@@H](C)[C@@H](O)[C@@H](O)[C@@H]1O.[Na+] [GMI-1271]
sE-selectin circulating (plasma) levels ([3]; AML patients, after treatment, all dose groups): significantly (P<0.0001) reduced; also recorded: decreased over the treatment period in all dose groups | decrease of plasma soluble E-selectin from baseline to Day 8 ([3]; end of 6 days of dosing concurrently with MEC chemotherapy): highly significant (p<0.0001) with no dose response | toxicities [4]: no measurable toxicities | toxicity [4]: no toxicity | antagonism of E-selectin [5]: potent antagonists of E-selectin | toxicities [6]: no measurable toxicities | toxicity [6]: no toxicity

TNFα
expression of E-selectin [1]: stimulate expression of E-selectin | expression of E-selectin [2]: stimulate expression of E-selectin

CCCCCCCCCCCCCCCC(=O)O [PA, palmitic acid]
adherence of human neutrophils [7]: did not

CCCCCCCCCCCCCCC(Cl)C(=O)O (stereo not shown) [Compound 2-CIPA, 2-chloropalmitic acid]
adherence of human neutrophils [7]: promoted neutrophil adhesion; also recorded: increases adhesion of neutrophils

C[C@@H]1O[C@@H](O[C@@H]2[C@@H](NC(=O)c3cc(=O)[nH]c(=O)[nH]3)C[C@@H](C(=O)NCCNC(=O)COCCOCC(=O)Nc3cc(S(=O)(=O)O)cc4cc(S(=O)(=O)O)cc(S(=O)(=O)O)c34)C[C@H]2O[C@@H]2O[C@H](CO)[C@H](O)[C@H](O[C@@H](CC3CCCCC3)C(=O)O)[C@H]2OC(=O)c2ccccc2)[C@@H](O)[C@H](O)[C@@H]1O [GMI-1070]
toxicities ([8]; Phase 1 clinical trials): no measurable toxicities | toxicity ([8]; humans, relatively high concentrations): no toxicity | toxicities [9]: no measurable toxicities | toxicity ([9]; relatively high concentrations): no toxicity

tocilizimab: antibody directed against the cytokine, IL-6, approved as an anti-inflammatory drug
patients who died [10]: one | patients who showed improvement [10]: three | patients who stabilized [10]: two

B1: IL-10: cytokine used to treat endothelial cells (protein, UniProt P22301 19-178, looked up)
Interleukin-10: SPGQGTQSENSCTHFPGNLPNMLRDLRDAFSRVKTFFQMKDQLDNLLLKESLLEDFKGYLGCQALSEMIQFYLEEVMPQAENQDPDIKAHVNSLGENLKTLRLRLRRCHRFLPCENKSKAVEQVKNAFNKLQEKGIYKAMSEFDIFINYIEAYMTMKIRN
expression of E-selectin [1]: stimulate expression of E-selectin | expression of E-selectin [2]: stimulate expression of E-selectin
